Laboratory results from PubChem BioAssay (NCI).
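Results reflect a 48-hour exposure of cells in 96-well plates to compound at five concentrations. TGI: total growth inhibition.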

Key:
Assay in all cases: NCI-60 cell line screen, 48 h
[1] = system: MCF7 breast
[2] = system: HL-60(TB) leukemia
[3] = system: MALME-3M melanoma
[4] = system: M14 melanoma
[5] = system: SR leukemia
[6] = system: U251 CNS
[7] = system: ACHN renal
[8] = system: SNB-19 CNS
[9] = system: BT-549 breast
[10] = system: A498 renal

| Structure (SMILES) | TGI [1] | TGI [2] | TGI [3] | TGI [4] | TGI [5] | TGI [6] | TGI [7] | TGI [8] | TGI [9] | TGI [10] |
| --- | --- | --- | --- | --- | --- | --- | --- | --- | --- | --- |
| CSC1=NS(=O)(=O)c2cc(C(=O)NN(C)C(=O)c3cc4c(cc3Cl)SC(SC)=NS4(=O)=O)c(Cl)cc2S1 | > 10 µM | > 10 µM | > 10 µM | > 10 µM | > 10 µM | > 10 µM | > 10 µM | > 10 µM | > 10 µM | > 10 µM |
| COc1c(C)c(OC)c2c(c1O)[C@@H]1[C@@H]3Cc4c(OC)c(C)c(OC)c(O)c4[C@H](CNC(=O)c4cnc5ccccc5n4)N3[C@@H](C#N)[C@H](C2)N1C | > 0.1 µM | 0.00554 µM | 0.00458 µM | 0.00568 µM | 0.0014 µM | > 0.0361 µM | > 0.0414 µM | > 0.0533 µM | 0.02 µM | 0.00894 µM |
| CC(=O)c1cc2c(s1)C(=O)c1ccccc1C2=O | 6.77 µM | > 100 µM | 2.65 µM | 10.8 µM | > 100 µM | 17 µM | 4.02 µM | 5.57 µM | 7.75 µM | > 66.8 µM |
| CC(=Nc1ccncc1)C(C)=Nc1ccncc1 | 38.3 µM | 87.2 µM | 37.3 µM | 34.8 µM | 67 µM | 69.1 µM | 27.5 µM | 68.5 µM | 42.3 µM | > 100 µM |
| C[C@]12CC[C@@H]3c4ccc(OC(=O)c5ccccc5)cc4CC[C@H]3[C@@H]1CC[C@@H]2Oc1c2ccccc2nc2ccccc12 | 46.3 µM | 40.4 µM | 21.6 µM | 15.9 µM | > 50 µM | 15.4 µM | > 50 µM | 15.5 µM | 25.1 µM | > 50 µM |
| Oc1ccc(CCc2cc(O)cc(O)c2)cc1 | > 100 µM | > 100 µM | > 100 µM | > 100 µM | > 100 µM | > 100 µM | > 100 µM | > 100 µM | > 100 µM | > 100 µM |
| NNc1nncn1N | > 100 µM | > 100 µM | > 85.4 µM | > 100 µM | > 100 µM | > 100 µM | > 100 µM | > 100 µM | > 100 µM | > 100 µM |
| [N-]=[N+]=Nc1ccc(CNc2cc(=O)[nH]c(=O)[nH]2)cc1 | > 100 µM | > 100 µM | > 100 µM | > 100 µM | > 100 µM | > 100 µM | > 100 µM | > 100 µM | > 100 µM | > 100 µM |
| C[N+](C)(C)c1ncnc2c1ncn2C1CCCCO1 (stereo not given) | > 100 µM | > 100 µM | > 100 µM | > 100 µM | > 100 µM | > 100 µM | > 100 µM | > 100 µM | > 100 µM | > 100 µM |
| CC1(COS(=O)(=O)OCC2(C)COS(=O)(=O)OC2)COS(=O)(=O)OC1 | > 59.9 µM | > 58 µM | > 100 µM | > 100 µM | > 56.9 µM | > 100 µM | > 74 µM | > 100 µM | > 96.2 µM | 97.2 µM |
| Cc1c(-c2ccccc2)c(C#N)c2nnc(C(N)=O)c(N)n12 | > 100 µM | > 100 µM | > 100 µM | > 100 µM | > 100 µM | > 100 µM | > 100 µM | > 100 µM | > 100 µM | > 100 µM |
| Cn1nc(S(N)(=O)=O)s/c1=N/C(N)=S | > 100 µM | > 100 µM | > 100 µM | > 100 µM | > 100 µM | > 100 µM | > 100 µM | > 100 µM | > 100 µM | > 100 µM |
| COc1cc2c(/C=C3/C(=O)N(c4ccccc4)c4ccccc43)c(Cl)[nH]c2cc1C | > 79 µM | > 23.1 µM | 19 µM | 12.9 µM | 30.5 µM | > 33.3 µM | > 49.2 µM | > 54.6 µM | 7.56 µM | > 71.4 µM |
| O=c1[nH]c(Nc2cccc(Cl)c2)nc2nc[nH]c12 | > 100 µM | > 100 µM | > 100 µM | > 100 µM | > 100 µM | > 100 µM | > 100 µM | > 100 µM | > 100 µM | > 100 µM |
